Test results from ChEMBL document CHEMBL5356958, “Discovery of a Highly Potent and Selective MYOF Inhibitor with Improved Water Solubility for the Treatment of Gastric Cancer” (J Med Chem, 2023).
Active and inactive are the calls of the source. The calls are words filed in the database; no cut-off is given here.

Assays:
Myoferlin = Myoferlin (Homo sapiens, UniProt Q9NZM1); experiment: Binding affinity to MYOF in human MKN45 cells at 50 to 100 uM incubated for 1 hr by CETSA; type: cell-based; conditions: MKN-45, dose 50-100 µM
Sequence of Myoferlin (Q9NZM1 whole entry): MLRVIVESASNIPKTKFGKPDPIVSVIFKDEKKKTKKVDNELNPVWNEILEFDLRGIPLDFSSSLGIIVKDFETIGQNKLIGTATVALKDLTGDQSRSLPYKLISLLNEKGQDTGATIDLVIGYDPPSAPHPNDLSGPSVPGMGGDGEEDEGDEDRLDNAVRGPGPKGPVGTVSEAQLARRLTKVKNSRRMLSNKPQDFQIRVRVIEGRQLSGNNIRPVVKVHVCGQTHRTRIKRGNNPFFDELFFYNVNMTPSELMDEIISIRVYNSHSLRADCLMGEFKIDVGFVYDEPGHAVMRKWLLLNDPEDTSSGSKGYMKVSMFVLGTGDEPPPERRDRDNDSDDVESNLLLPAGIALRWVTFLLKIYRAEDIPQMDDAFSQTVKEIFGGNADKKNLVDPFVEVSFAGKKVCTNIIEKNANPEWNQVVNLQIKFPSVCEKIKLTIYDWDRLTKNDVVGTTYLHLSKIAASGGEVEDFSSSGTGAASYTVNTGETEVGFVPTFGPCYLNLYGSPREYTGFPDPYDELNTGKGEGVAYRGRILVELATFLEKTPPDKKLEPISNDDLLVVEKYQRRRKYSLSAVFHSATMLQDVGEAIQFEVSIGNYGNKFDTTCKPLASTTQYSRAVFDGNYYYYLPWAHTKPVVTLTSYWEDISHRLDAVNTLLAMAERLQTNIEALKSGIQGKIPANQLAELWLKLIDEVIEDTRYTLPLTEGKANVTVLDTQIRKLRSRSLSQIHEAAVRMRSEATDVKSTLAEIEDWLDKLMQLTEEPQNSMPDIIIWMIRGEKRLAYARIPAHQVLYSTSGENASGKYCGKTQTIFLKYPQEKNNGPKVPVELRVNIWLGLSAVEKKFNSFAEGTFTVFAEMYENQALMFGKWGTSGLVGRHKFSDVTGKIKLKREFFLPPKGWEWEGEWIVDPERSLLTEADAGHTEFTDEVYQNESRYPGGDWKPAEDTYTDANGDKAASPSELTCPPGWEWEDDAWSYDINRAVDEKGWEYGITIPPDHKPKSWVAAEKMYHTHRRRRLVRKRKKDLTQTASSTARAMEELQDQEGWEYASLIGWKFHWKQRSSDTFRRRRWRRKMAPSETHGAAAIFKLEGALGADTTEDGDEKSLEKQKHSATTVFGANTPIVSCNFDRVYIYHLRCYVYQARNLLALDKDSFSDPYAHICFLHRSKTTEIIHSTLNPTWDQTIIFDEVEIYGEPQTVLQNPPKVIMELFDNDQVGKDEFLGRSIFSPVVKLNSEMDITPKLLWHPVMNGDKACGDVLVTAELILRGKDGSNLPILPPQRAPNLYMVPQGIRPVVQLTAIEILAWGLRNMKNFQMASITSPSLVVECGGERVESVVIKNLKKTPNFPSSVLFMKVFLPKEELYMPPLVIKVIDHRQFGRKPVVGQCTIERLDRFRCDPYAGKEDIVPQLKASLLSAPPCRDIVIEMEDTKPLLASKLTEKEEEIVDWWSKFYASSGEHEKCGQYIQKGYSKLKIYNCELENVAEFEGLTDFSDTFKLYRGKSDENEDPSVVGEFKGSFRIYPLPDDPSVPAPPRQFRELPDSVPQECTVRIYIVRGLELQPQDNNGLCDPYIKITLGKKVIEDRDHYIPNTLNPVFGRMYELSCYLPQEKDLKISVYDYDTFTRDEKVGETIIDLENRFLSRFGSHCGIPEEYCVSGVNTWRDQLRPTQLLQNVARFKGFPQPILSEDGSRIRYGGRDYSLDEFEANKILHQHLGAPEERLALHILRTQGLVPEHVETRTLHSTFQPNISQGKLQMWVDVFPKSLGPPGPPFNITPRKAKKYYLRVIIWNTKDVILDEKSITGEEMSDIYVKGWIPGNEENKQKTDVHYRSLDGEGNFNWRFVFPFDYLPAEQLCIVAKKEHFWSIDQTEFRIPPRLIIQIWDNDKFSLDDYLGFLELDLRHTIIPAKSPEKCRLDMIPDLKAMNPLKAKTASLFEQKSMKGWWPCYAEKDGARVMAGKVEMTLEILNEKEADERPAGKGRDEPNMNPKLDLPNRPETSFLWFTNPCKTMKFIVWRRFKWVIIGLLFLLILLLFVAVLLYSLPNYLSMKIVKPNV

BXPC-3 = experiment: Antiproliferative activity against human BXPC-3 cells incubated for 48 hrs by SRB assay; type: functional, cell-based; conditions: BXPC-3, 48 h
DU-145 = experiment: Antiproliferative activity against human DU-145 cells incubated for 48 hrs by SRB assay; type: functional, cell-based; conditions: DU-145, 48 h
[1] = Toxicity in BALB/c mouse assessed as change in lung morphology at 15 to 30 mg/kg, ip measured every 3 days for 21 days by HE staining based assay; type: organism-based; conditions: in vivo, 504 h, dose 15-30 mg/kg, time 21 day
[2] = AUC(0 to t) in ICR mouse at 1 mg/kg, iv; type: ADME, organism-based; design: dose 1 mg/kg, route iv; conditions: in vivo
MKN-45 [3] = experiment: Inhibition of epithelial mesenchymal transition in human MKN-45 cells assessed as upregulation in E-cadherin level by Western blotting analysis; type: functional, cell-based; conditions: dose 100-400 nM
MKN-45 [4] = experiment: Inhibition of human MKN-45 cells colony formation incubated for 10 days by crystal violet staining based assay; type: functional, cell-based; conditions: dose 50-100 nM, time 10.0 day
[5] = Cmax in ICR mouse at 10 mg/kg, po; type: ADME, organism-based; design: dose 10 mg/kg, route po; conditions: in vivo
[6] = Mean residence time in ICR mouse at 10 mg/kg, po; type: ADME, organism-based; conditions: in vivo
[7] = Toxicity in BALB/c mouse assessed as change in spleen morphology at 15 to 30 mg/kg, ip measured every 3 days for 21 days by HE staining based assay; type: organism-based; conditions: in vivo, 504 h, dose 15-30 mg/kg, time 21 day
[8] = Toxicity in BALB/c mouse assessed as change in kidney morphology at 15 to 30 mg/kg, ip measured every 3 days for 21 days by HE staining based assay; type: organism-based; conditions: in vivo, 504 h, dose 15-30 mg/kg, time 21 day
[9] = Toxicity in BALB/c mouse assessed as change in heart morphology at 15 to 30 mg/kg, ip measured every 3 days for 21 days by HE staining based assay; type: organism-based; conditions: in vivo, 504 h, dose 15-30 mg/kg, time 21 day
MKN-45 [10] = experiment: Induction of apoptosis in human MKN-45 cells assessed as early apoptotic cells at 800 nM incubated for 48 hrs by Annexin V-FITC/PI staining based flow cytometry analysis (reference value: 0.5%); type: functional

Activity (Myoferlin): Active
IC50 (BXPC-3): 130 nM
IC50 (DU-145): > 10000 nM
AUC(0-t) [2]: 751 ng·h/mL
Cmax [5]: 5820 ng/mL
MRT [6]: 40.3 min
SMILES: CCc1nc(-c2ccc(OC)cc2)n(-c2cccc(C(=O)NCCCCn3nccn3)c2)n1
Activity [1]: Non-Toxic
inhibition (MKN-45 [3]): Dose-Dependent Effect
inhibition (MKN-45 [4]): Dose-Dependent Effect
Activity [7]: Non-Toxic
Activity [8]: Non-Toxic
Activity [9]: Non-Toxic
Activity (MKN-45 [10]): 13.4%
